Measurements published in US20200330603A1, “PEPTIDES FOR RENAL THERAPY” (FRED HUTCHINSON CANCER RESEARCH CENTER, priority 2015, published 2020).
Ends that are not written are not given here.

How the values were obtained:
[1] = Accumulation of 14C-methylated peptide in renal tissue (Example 3); type: in vivo, mice; conditions: 14C autoradiography, iv 30-100 nmol per mouse; 3 hours and 24 hours
Protocol: This example describes accumulation of peptides of this disclosure in renal tissue. ^14C-methylated knotted peptides were intravenously dosed into mice at 30-100 nmol per mouse. […] Cryosectioning was performed on a Bright-Hacker cryotome, taking 40 μm sagittal sections. Collected sections were allowed to freeze dry at −20° C. for 48-72 hours before being exposed to phosphor imager plates. Plates were exposed for 7 days then scanned on a RayTest CR-Bio35 scanner. Analysis was performed with AIDA WBA analysis software.

[2] = Fluorescent peptide delivery to kidneys, whole body fluorescence analysis; type: in vivo; conditions: 10 nmol iv, average and standard deviation from two mice
Protocol: This example illustrates fluorescent peptide delivery to kidneys. Peptides were labeled by reaction with NHS esters of Cy5.5 or AlexaFluor 647 (AF647). For comparison, the free […] NHS esters were hydrolyzed to produce unreactive Cy5.5-COOH and AF647-COOH. A dose of 10 nmol of dye-labeled peptide or dye alone was administered intravenously and fluorescence was measured at 3 hours, 24 hours, and 48 hours after administration. At each time point, mice were frozen and sectioned for whole body fluorescence analysis, which was performed by scanning the sections on the Odyssey 2.1 at 84 um resolution using the 700 channel.
Average and standard deviation are presented from two mice per group.

[3] = Competitive renal uptake studies, fluorescence imaging of whole organs; type: in vivo, mice; conditions: 4 hours
Protocol: This example describes competitive uptake studies of peptides of this disclosure in kidneys. Peptides of this disclosure were compared to known kidney homers (“competitors”) to assess the efficiency and strength of kidney targeting. Three competitors were tested against a peptide of SEQ ID NO: 4, and kidney uptake was quantified by fluorescence imaging of whole organs on a Spectrum IVIS imager.
Kidneys from uninjected mice were used as a negative control. Fluorescence signal in each group was quantified to determine the average radiant efficiency in the kidneys from three mice per cohort. Data are shown as mean and error bars indicate standard deviation. A p-value of 0.0081 was calculated by a T-test, and the error bars indicate standard deviation. In this experiment, the unlabeled SEQ ID NO: 4 peptide competed with the SEQ ID NO: 4-AF647 as shown by decreased fluorescence and thus, decreased accumulation of the dye labeled peptide in the kidney. […] Fluorescence signal in each group was quantified to determine the average radiant efficiency in the kidneys from three mice per cohort. Data are shown as mean and error bars indicate standard deviation. Kidney uptake of a peptide of SEQ ID NO: 4-AF647 was not dampened by SEQ ID NO: 121 peptide even at the highest ratio of competitor. […] Fluorescence signal in each group was quantified to determine the average radiant efficiency in the kidneys from three mice per cohort. Data are shown as mean and error bars indicate standard deviation. A p-value of 0.015 was calculated by a Student's unpaired t-test.

[4] = Confocal imaging of kidneys 30 minutes after administration; type: in vivo, mice; conditions: 10 nmol
From the text: Kidneys were isolated, sectioned, and imaged using a Zeiss confocal microscopy.

Molecule: CNCCC(Oc1ccc(C(F)(F)F)cc1)c1ccccc1 (centres unmarked) [fluoxetine, reference compound]
- renal signal pattern [1]: non-interactive passage through the kidneys

Molecule: Cy5.5
- Fluorescence Signal in Kidneys 3 hours ([2]; 3 hours): 416 ± 170
- Fluorescence Signal in Kidneys 24 hours ([2]; 24 hours): 88 ± 8
- Fluorescence Signal in Kidneys 48 hours ([2]; 48 hours): 58 ± 11

Molecule: GSSCEPGRTFRDRCNTCRCGADGRSAACTLRACPNQ [SEQ ID NO: 4]
- renal uptake in competition with unlabeled SEQ ID NO: 4 (FIG. 10) ([3]; 2 nmol SEQ ID NO: 4-AF647 co-injected with 0, 10 or 50 nmol unlabeled peptide): specific and saturable
- renal signal pattern [1]: interacting with the kidney, likely cells of the proximal tubule

Molecule: SEQ ID NO: 4-AF647: SEQ ID NO: 4 conjugated to AF647 (GSSCEPGRTFRDRCNTCRCGADGRSAACTLRACPNQ; not fully specified; cysteine pairing not given here)
- accumulation of dye in the kidney proximal tubules (FIG. 13) [4]: can deliver and accumulate dye when attached as a conjugate in the kidney proximal tubules
- renal uptake compared with control peptide-AF647 (FIG. 12) ([3]; 10 nmol iv, p-value of 0.015): significantly higher extent than the control peptide
